Assay results from PubChem BioAssay AID1996.
Converted amounts (≈) assume the structure as drawn.

details: buffer; pH 7.4; 200.0 µM

SMILES	solubility kinetic [µg/mL]
COc1ccc(Cl)cc1S(=O)(=O)NCCCn1ccnc1	48.6 (≈ 147 µM)
COc1ccc(NC(=O)C2CC(=O)N(c3ccccc3C)C2)c(OC)c1 (stereo unspecified)	> 53.2
CCC(=O)Nc1ccc(NCc2ccc(-c3ccccc3)cc2)cc1	28.6 (≈ 86.6 µM)
CC(C)NC(=O)COc1ccc(OCc2ccccc2)cc1	9.5 (≈ 31.7 µM)
S=c1[nH]ccn1Cc1ccccc1	> 28.5
COC(=O)c1ccc(OC)c(Cn2c(=O)n(C)c(=O)c3ccccc32)c1	2.2 (≈ 6.21 µM)
Cc1cccc(C)c1NC(=O)CCCCCC1NC(=O)NC1C (stereo unspecified)	> 47.6
Cc1cccc(-c2noc(CCCC(=O)NCC3CCCO3)n2)c1 (stereo unspecified)	> 49.4
CCCN(CCC)S(=O)(=O)c1nc2nc(C)cc(C)n2n1	> 46.7
Cc1cc(NC(=O)COC(=O)C2CSC3(C)CCC(=O)N23)ccc1Br (stereo unspecified)	> 64.1
O=C1ON=C(c2ccccc2)/C1=C/c1ccc(O)cc1	> 39.8
COCc1[nH]c(=S)c(C#N)cc1C(=O)OC	27.9 (≈ 117 µM)
COc1ccc(-c2nc3ccccc3c(=O)n2CC(C)C)cc1	38.3 (≈ 124 µM)
Cc1ccc(C(=O)OCC(=O)NC2CCCC2)cc1	22.5 (≈ 86.1 µM)
CSCCC(NC(=O)c1cccc(C)c1)C(=O)NCc1cccs1 (stereo unspecified)	> 54.4
O=C(COc1ccccc1)N1CCN=C1SCc1ccccc1	14.3 (≈ 43.8 µM)
CCOc1ccc(N2C(=O)/C(=C/c3ccc(C)o3)C(=O)NC2=S)cc1	> 53.5
CCOc1ccc(CN(C)C(=O)c2ccc(=O)[nH]c2)cc1	29.3 (≈ 102 µM)
C=CCNC(=O)c1ccccc1SCc1c(C)noc1C	> 45.4
Cc1cc(C(=O)NCc2ccc3c(c2)OCO3)c(C)o1	> 41
CN(C)c1ccc(C(=O)OCC(=O)NCCC2=CCCCC2)cc1	4.7 (≈ 14.2 µM)

SMILES	solubility kinetic [µg/mL]
COc1ccc(Oc2ncnc3sccc23)cc1	14.9 (≈ 57.7 µM)
O=C(NCc1ccco1)c1cccc(Br)c1	39 (≈ 139 µM)
CC(=O)Oc1ccc(-c2nc3ccccc3c(=O)o2)cc1	2.6 (≈ 9.24 µM)
O=C(Nc1ccc(Cl)cc1N1CCOCC1)C1CCCO1 (stereo unspecified)	44.7 (≈ 144 µM)
O=C(/C=C/N1CCN(Cc2ccccc2)CC1)C(F)(F)F	> 44.7
O=C(NC(=S)Nc1ccccn1)c1cccc([N+](=O)[O-])c1	6.2 (≈ 20.5 µM)
COCC(C)N=C1SCCN1Cc1ccccc1 (stereo unspecified)	35.3 (≈ 134 µM)
NC(=O)CCC1NC(=S)N(Cc2ccccc2)C1=O (stereo unspecified)	32.6 (≈ 118 µM)
O=C(/C=C/c1cccc(F)c1)OCC(=O)c1ccc[nH]1	7.5 (≈ 27.4 µM)
CC(C)OCCCNc1ncnc2c1nc1n2CCCC1	> 43.4
Cc1ccc(C)c(NC(=O)Nc2ccc3c(c2)OCO3)c1	1 (≈ 3.52 µM)
CCc1cccc2c1NC(=O)C21OCCO1	27.5 (≈ 125 µM)
Cc1c(/C=N/O)c2ccccn2c1C=O	> 30.3
CCN1C(=O)C(O)(CC(=O)c2c(C)coc2C)c2ccccc21 (stereo unspecified)	> 47
CCN(CC)S(=O)(=O)c1ccc2oc(Nc3ccccc3)nc2c1	6.4 (≈ 18.5 µM)
CC(C)C(NC(=O)c1cccs1)C(=O)NC1CCCCC1 (stereo unspecified)	4.7 (≈ 15.2 µM)
NC(Cc1c[nH]c2ccccc12)C(=O)NCc1ccccc1 (stereo unspecified)	39.1 (≈ 133 µM)
CCOC(=O)C1(Cc2ccccc2)CCCN(CCO)C1 (stereo unspecified)	> 43.7
Cc1noc(NS(=O)(=O)c2ccc(NC(=O)c3cc4ccccc4o3)cc2)c1C	61.6 (≈ 150 µM)
Cc1cccc(NC(=O)N2CCC(NC(=O)C3CCCCC3)CC2)c1	1.6 (≈ 4.66 µM)
O=C(COc1ccccc1)Nc1c(Cl)ccc2nsnc12	4.7 (≈ 14.7 µM)

SMILES	solubility kinetic [µg/mL]
O=C(CN1C(=O)COc2ccccc21)NCC1CCCO1 (stereo unspecified)	> 43.5
O=C1NC(=O)/C(=C/c2ccccn2)S1	> 30.9
COc1ccc(CNC(=O)COC(=O)CN2C(=O)C3CC=CCC3C2=O)cc1 (stereo unspecified)	> 58
c1coc(CN2CNc3nc4ccccc4n3C2)c1	35.2 (≈ 138 µM)
Cc1ccc(C(=O)OCC(=O)NCCC2=CCCCC2)cc1N	21 (≈ 66.4 µM)
CC(C)CN(CC(C)C)C(=S)Nc1ccc(Cl)cc1	2.2 (≈ 7.36 µM)
CN(C)c1ncnc2sc(-c3ccccc3)cc12	3 (≈ 11.7 µM)
O=C1CCC(C(=O)OCC(=O)Nc2cc(Cl)ccc2F)=NN1	> 49.2
N/C(=N\OC(=O)C1CCCCC1)c1ccc(Cl)cc1	8.1 (≈ 28.9 µM)
CCOc1cc(N2CCOCC2)c(OCC)cc1NC(=O)COC(=O)c1c(CC)noc1C	7 (≈ 15.2 µM)
O=C(COC(=O)C1CCCC1)Nc1cccc(Cl)c1Cl	5.9 (≈ 18.7 µM)
CCc1ccccc1OCC(=O)Nc1ccc2c(c1)OCCO2	15.9 (≈ 50.7 µM)
O=C(CCc1ccc(S(=O)(=O)N2CCOCC2)cc1)Nc1ccc(F)c(F)c1F	44.6 (≈ 104 µM)
CC(=O)c1sccc1NC(=O)c1ccccc1C(=O)O	> 43.4
CCCCN(CC)Cc1c(O)ccc2c(-c3ccccc3)cc(=O)oc12	36.1 (≈ 103 µM)
CCC1CN(C(=O)NCc2cccc(OC)c2)c2cc(Cl)ccc2O1 (stereo unspecified)	4.5 (≈ 12.5 µM)
O=C(COC(=O)COc1ccc(Cl)cc1)NC1CC1	> 42.6
c1ccc2oc(NC3=NCN(C4CCCCC4)CN3)nc2c1	1.3 (≈ 4.34 µM)
COc1cccc2c1OC1(CCN(C(C)C)CC1)N1N=C(c3cccnc3)CC21 (stereo unspecified)	> 58.9
